Source: patent publication US5721234A, “Glutamate receptor antagonists: fused cycloalkylouinoxalinediones” (Warner-Lambert Company, priority 1995, dated 1998)
Structures can show the parent of a compound that is named as a salt.

Assays:
[1] = target: AMPA receptors; assay: AMPA receptor binding affinity (Honore et al.)
[2] = target: kainate site (non-NMDA receptor); assay: Kainate site (non-NMDA receptor) binding affinity (London and Coyle)
[3] = Table 1, cyclohexyl-fused analogs
[4] = Table 2, cyclopentyl-fused analogs

| Structure (SMILES) | IC50 [1, 3] [µM] | IC50 [2, 3] [µM] | IC50 [1, 4] [µM] | IC50 [2, 4] [µM] |
| --- | --- | --- | --- | --- |
| O=c1[nH]c2cc(Br)c3c(c2[nH]c1=O)CC(OCc1ccccc1)CC3 (stereo not drawn) [Example 8, 9-benzyloxy-6-bromo-1,4,7,8,9,10-hexahydro-benzo[f]quinoxaline-2,3-dione] | 14 | > 100 | – | – |
| CC(=O)NC1Cc2cc(Br)c3[nH]c(=O)c(=O)[nH]c3c2C1 (stereo not drawn) [Example 28, N-(5-bromo-2,3-dioxo-2,3,4,7,8,9-hexahydro-1H-cyclopenta[f]quinoxalin-8-yl)-acetamide] | – | – | > 100 | > 100 |
| CC(=O)NC1Cc2c([N+](=O)[O-])c(Br)c3[nH]c(=O)c(=O)[nH]c3c2C1 (stereo not drawn) [Example 29, N-(5-bromo-6-nitro-2,3-dioxo-2,3,4,7,8,9-hexahydro-1H-cyclopenta[f]quinoxalin-8-yl)acetamide] | – | – | 5.1 | – |
| CC(=O)NC1Cc2ccc3[nH]c(=O)c(=O)[nH]c3c2C1 (stereo not drawn) [Example 30, N-(2,3-dioxo-2,3,4,7,8,9-hexahydro-1H-cyclopenta[f]quinoxalin-8-yl)-acetamide] | – | – | 25 | 87 |
| NC1Cc2c([N+](=O)[O-])cc3[nH]c(=O)c(=O)[nH]c3c2C1 (stereo not drawn) [Example 38, 8-amino-6-nitro-4,7,8,9-tetrahydro-1H-cyclopenta[f]quinoxaline-2,3-dione hydrochloride] | – | – | 2.6 | 2.1 |
| CN(C(=O)c1ccccc1)C1CCc2c([N+](=O)[O-])cc3[nH]c(=O)c(=O)[nH]c3c2C1 (stereo not drawn) [Example 53, N-Methyl-N-(6-nitro-2,3-dioxo-1,2,3,4,7,8,9,10-octahydro-benzo[f]quinoxalin-9-yl)-benzamide] | 1.1 | 1.6 | – | – |
| O=C(NC1Cc2c([N+](=O)[O-])cc3[nH]c(=O)c(=O)[nH]c3c2C1)c1cc2ccccc2s1 (stereo not drawn) [Example 65, Benzo[b]thiophene-2-carboxylic acid (6-nitro-2,3,-dioxo-2,3,4,7,8,9-hexahydro-1H-cyclopenta[f]quinoxalin-8-yl)-amide] | – | – | 1.3 | 8.1 |
| CN(C(=O)c1cccs1)C1Cc2c([N+](=O)[O-])cc3[nH]c(=O)c(=O)[nH]c3c2C1 (stereo not drawn) [Example 67, Thiophene-2-carboxylic acid methyl-(6-nitro-2,3-dioxo-2,3,4,7,8,9-hexahydro-1H-cyclopenta[f]quinoxalin-8-yl)-amide] | – | – | 3.6 | 1.6 |
| CN(C(=O)c1ccccc1)C1Cc2c([N+](=O)[O-])cc3[nH]c(=O)c(=O)[nH]c3c2C1 (stereo not drawn) [Example 68, N-Methyl-N-(6-nitro-2,3-dioxo-2,3,4,7,8,9-hexahydro-1H-cyclopenta[f]quinoxalin-8-yl)-benzamide] | – | – | 7.4 | 1.9 |
| O=C(Nc1ccccc1)C1Cc2c([N+](=O)[O-])cc3[nH]c(=O)c(=O)[nH]c3c2C1 (stereo not drawn) [Example 80, 6-Nitro-2,3,-dioxo-2,3,4,7,8,9-hexahydro-1H-cyclopenta[f]quinoxaline-8-carboxylic acid phenylamide] | – | – | 1.6 | 3.9 |
| O=c1[nH]c2cc([N+](=O)[O-])c3c(c2[nH]c1=O)CC(N1CCCC1)CC3 (stereo not drawn) [Example 86, 6-Nitro-9-pyrrolidin-1-yl-1,4,7,8,9,10-hexahydro-benzo[f]quinoxaline-2,3-dione] | 2.2 | 3.8 | – | – |
| CNC1Cc2c([N+](=O)[O-])cc3[nH]c(=O)c(=O)[nH]c3c2C1 (stereo not drawn) [Example 100, 8-Methylamino-6-nitro-4,7,8,9-tetrahydro-1H-cyclopenta[f]quinoxaline-2,3-dione methane sulfonate salt] | – | – | 1.2 | 2.2 |
| O=C(CN(CCO)CCO)NC1Cc2c([N+](=O)[O-])cc3[nH]c(=O)c(=O)[nH]c3c2C1 (stereo not drawn) [Example 101, 2-[Bis-(2-hydroxy-ethyl)-amino]-N-(6-nitro-2,3-dioxo-2,3,4,7,8,9-hexahydro-1H-cyclopenta[f]quinoxalin-8-yl)-acetamide] | – | – | 1.1 | 1.4 |
| O=c1[nH]c2cc([N+](=O)[O-])c3c(c2[nH]c1=O)CC(N1CCCC1)C3 (stereo not drawn) [Example 104, 6-Nitro-8-pyrrolidin-1-yl-4,7,8,9-tetrahydro-1H-cyclopenta[f]quinoxaline-2,3-dione] | – | – | 1.5 | 2.2 |
